“Also recorded” adds a separate entry of the source.
Key:
α2β3γ2L GABAA receptor = α2β3γ2L GABAA receptor (UniProt P18508+P47869, INS375LLRMFSFK); type: cell-based, human; conditions: for peak response (potentiation of the response to GABA): α2β3γ2L, percentage of the response to GABA alone
[1] = system: lactic acid-depressed locomotion in mice; experiment: Lactic acid-depressed locomotor activity; set-up: species or system ICR mice; conditions: mouse, in vivo
[2] = system: acetic acid-depressed nesting in mice; experiment: Acetic acid-depressed nesting; type: in vivo, ICR mice; conditions: 60 min nesting period
[3] = target: α5-containing GABAA receptors (with β3, γ2L) (Rattus norvegicus, UniProt P18508+P19969, INS375LLRMFSFK); type: cell-based; conditions: 0.1 μM modulator, 0.3 μM GABA
α3β3γ2L GABAA receptor = α3β3γ2L GABAA receptor (Rattus norvegicus, UniProt P18508+P20236, INS375LLRMFSFK); type: cell-based; conditions: for peak response (potentiation of the response to GABA): α3β3γ2L, percentage of the response to GABA alone
[4] = system: acetic acid-depressed locomotion in mice; experiment: Acetic acid-depressed locomotor activity; type: in vivo, ICR mice; conditions: s.c. pretreatment, 0.6% acetic acid
mice = experiment: Pilot study of a larger dose; type: in vivo; conditions: 32 mg/kg
[5] = system: 0.32% lactic acid-induced writhing in mice; type: in vivo, ICR mice; conditions: s.c. pretreatment, 25 min observation
[6] = system: 0.6% acetic acid-induced writhing in mice; experiment: 0.6% acetic acid-induced writhing; type: in vivo, ICR mice; conditions: s.c. pretreatment, 25 min observation
α1β3γ2L GABAA receptor = α1β3γ2L GABAA receptor (Rattus norvegicus, UniProt P18508+P62813, INS375LLRMFSFK); type: cell-based; conditions: for peak response (potentiation of the response to GABA): α1β3γ2L, percentage of the response to GABA alone
[7] = target: α6-containing GABAA receptors (with β3, γ2L) (Rattus norvegicus, UniProt P18508+P30191, INS375LLRMFSFK); type: cell-based; conditions: 1 μM modulator, 0.1 μM GABA
[8] = target: α4-containing GABAA receptors (with β3, γ2L) (Rattus norvegicus, UniProt P18508+P28471, INS375LLRMFSFK); type: cell-based; conditions: 1 μM modulator, 0.3 μM GABA
formalin test = conditions: only partially effective; cited from earlier work
[9] = system: rat models of inflammatory and neuropathic pain; conditions: cited from earlier work
[10] = system: spontaneous locomotor activity in naïve mice; experiment: Baseline locomotor activity without acid; type: in vivo, ICR mice; conditions: doses used for the pain studies

| Compound | EC50 (α2β3γ2L GABAA receptor) | peak response (potentiation of the response to GABA) (α2β3γ2L GABAA receptor) | effect on locomotor activity of lactic acid-treated mice (in words) [1] | effect on the decrease in cleared zones by acetic acid (nesting, in words) [2] | modulation of GABA response at α5-containing receptors (in words) [3] | EC50 (α3β3γ2L GABAA receptor) | peak response (potentiation of the response to GABA) (α3β3γ2L GABAA receptor) | effect on locomotor activity of acetic acid-treated mice (in words) [4] | sedation at a larger dose (mice) | effect on […] lactic acid-induced writhing (in words) [5] | effect on 0.6% acetic acid-induced writhing (in words) [6] | EC50 (α1β3γ2L GABAA receptor) | peak response (potentiation of the response to GABA) (α1β3γ2L GABAA receptor) | further results |
| --- | --- | --- | --- | --- | --- | --- | --- | --- | --- | --- | --- | --- | --- | --- |
| C#Cc1ccc2c(c1)C(c1ccccc1F)=NCc1c(-c3cnco3)ncn1-2 [KRM-II-18B, 5-(8-ethynyl-6-(2-fluorophenyl)-4H-benzo[f]imidazo[1,5-a][1,4]diazepin-3-yl) oxazole] | 261 ± 116 nM | 320.0 ± 14.3% | failed to restore | failed to significantly attenuate | significant efficacy | 169 ± 39.8 nM | 383.0 ± 33.2% | failed to restore | marked sedation | decreased | dose-dependently decreased | 739 ± 252 nM | 410.6 ± 26.3% | selectivity among the three subtypes (α1, α2, α3) (α1β3γ2L GABAA receptor; in words): no significant selectivity |
| C#Cc1ccc2c(c1)C(c1ccccn1)=NCc1c(-c3cnco3)ncn1-2 [KRM-II-81, 5-(8-ethynyl-6-(pyridin-2-yl)-4H-benzo[f]imidazo[1,5-a][1,4]diazepin-3-yl) oxazole] | 102 ± 28.5 nM | 350.1 ± 21.5% | failed to restore | failed to significantly attenuate | much less sensitive; also recorded: negligible efficacy | 60.9 ± 11.6 nM | 352.2 ± 38.0% | failed to restore | marked sedation | decreased | dose-dependently decreased | 1730 ± 690 nM | 316.9 ± 38.6% | selectivity on α2 subtype over α1 subtype GABAA receptors (α2β3γ2L GABAA receptor; from EC50 values): 17 fold; selectivity on α3 subtype over α1 subtype GABAA receptors (α3β3γ2L GABAA receptor; from EC50 values): 28 fold; modulation of GABA response at α6-containing receptors (in words) [7]: negligible efficacy; modulation of GABA response at α4-containing receptors (in words) [8]: negligible efficacy |
| CC(C)(O)c1ccc2c(c1)ncn2-c1cccc(-c2ccccc2C#N)c1 [NS11394, 3′-[5-(1-hydroxy-1-methyl-ethyl)-benzoimidazol-1-yl]-biphenyl-2-carbonitrile] |  |  |  |  |  |  |  |  |  |  |  |  |  | reduction in the formalin test (formalin test): 33%; antinociceptive effects in rat models of inflammatory and neuropathic pain [9]: significant antinociceptive effects; sedation at the antinociceptive doses ([9]; rat, same doses): does not produce sedation |
| CC(=O)Nc1ccc(O)cc1 [acetaminophen, reference compound] |  |  | dose-dependently increased |  |  |  |  | dose-dependently increased |  |  |  |  |  | effect on locomotor / spontaneous activity without acid [10]: did not significantly change |

— article PMC5686453 (ACS chemical neuroscience, 2017)
